Results from ChEMBL document CHEMBL1255302, “Genetic structures at the origin of acquisition of the beta-lactamase bla KPC gene” (2008).
≈ marks a conversion by molar mass, not a printed value.

What was measured:
Format in all cases: functional
Escherichia coli [1] = assay: Antibacterial activity against Escherichia coli harboring pBC2303 expressing blaKPC gene plasmid by Etest method
Escherichia coli [2] = assay: Antibacterial activity against Escherichia coli harboring pBC633 plasmid expressing blaKPC gene by Etest method
Klebsiella pneumoniae [3] = assay: Antibacterial activity against Klebsiella pneumoniae KN2303 by Etest method
Escherichia coli [4] = assay: Antibacterial activity against Escherichia coli harboring pNGR plasmid expressing blaKPC gene by Etest method
Pseudomonas aeruginosa [5] = assay: Antibacterial activity against Pseudomonas aeruginosa 2404 plasmid by Etest method
Escherichia coli [6] = assay: Antibacterial activity against Escherichia coli DH10B expressing blaKPC gene by Etest method
Klebsiella pneumoniae [7] = assay: Antibacterial activity against Klebsiella pneumoniae YC by Etest method
Escherichia coli [8] = assay: Antibacterial activity against Escherichia coli harboring pNYC plasmid expressing blaKPC gene by Etest method
Pseudomonas aeruginosa [9] = assay: Antibacterial activity against Pseudomonas aeruginosa KG2505 harboring pCOL plasmid by Etest method
Escherichia coli [10] = assay: Antibacterial activity against Escherichia coli harboring pRYC plasmid expressing blaKPC gene by Etest method
Pseudomonas aeruginosa [11] = assay: Antibacterial activity against Pseudomonas aeruginosa KG2505 by Etest method
Escherichia coli [12] = assay: Antibacterial activity against Escherichia coli harboring pCOL plasmid expressing blaKPC gene by Etest method
Klebsiella pneumoniae [13] = assay: Antibacterial activity against Klebsiella pneumoniae GR by Etest method
Klebsiella pneumoniae [14] = assay: Antibacterial activity against Klebsiella pneumoniae 633 by Etest method
Escherichia coli [15] = assay: Antibacterial activity against Escherichia coli DH10B expressing blaKPC gene by Etest method in presence of beta-lactamase inhibitor clavulanic acid
Escherichia coli [16] = assay: Antibacterial activity against Escherichia coli harboring pRYC plasmid expressing blaKPC gene by Etest method in presence of beta-lactamase inhibitor clavulanic acid
Pseudomonas aeruginosa [17] = assay: Antibacterial activity against Pseudomonas aeruginosa 2404 plasmid by Etest method in presence of beta-lactamase inhibitor clavulanic acid
Klebsiella pneumoniae [18] = assay: Antibacterial activity against Klebsiella pneumoniae KN2303 by Etest method in presence of beta-lactamase inhibitor clavulanic acid
Klebsiella pneumoniae [19] = assay: Antibacterial activity against Klebsiella pneumoniae GR by Etest method in presence of beta-lactamase inhibitor clavulanic acid
Escherichia coli [20] = assay: Antibacterial activity against Escherichia coli harboring pCOL plasmid expressing blaKPC gene by Etest method in presence of beta-lactamase inhibitor clavulanic acid
Escherichia coli [21] = assay: Antibacterial activity against Escherichia coli harboring pBC633 plasmid expressing blaKPC gene by Etest method in presence of beta-lactamase inhibitor clavulanic acid
Pseudomonas aeruginosa [22] = assay: Antibacterial activity against Pseudomonas aeruginosa KG2505 harboring pCOL plasmid by Etest method in presence of beta-lactamase inhibitor clavulanic acid
Escherichia coli [23] = assay: Antibacterial activity against Escherichia coli harboring pNYC plasmid expressing blaKPC gene by Etest method in presence of beta-lactamase inhibitor clavulanic acid
Pseudomonas aeruginosa [24] = assay: Antibacterial activity against Pseudomonas aeruginosa KG2505 by Etest method in presence of beta-lactamase inhibitor clavulanic acid
Escherichia coli [25] = assay: Antibacterial activity against Escherichia coli harboring pNGR plasmid expressing blaKPC gene by Etest method in presence of beta-lactamase inhibitor clavulanic acid
Escherichia coli [26] = assay: Antibacterial activity against Escherichia coli harboring pBC2303 expressing blaKPC gene plasmid by Etest method in presence of beta-lactamase inhibitor clavulanic acid
Klebsiella pneumoniae [27] = assay: Antibacterial activity against Klebsiella pneumoniae 633 by Etest method in presence of beta-lactamase inhibitor clavulanic acid
Klebsiella pneumoniae [28] = assay: Antibacterial activity against Klebsiella pneumoniae YC by Etest method in presence of beta-lactamase inhibitor clavulanic acid

Row | Compound | MIC (Escherichia coli [1]) [µg/mL] | MIC (Escherichia coli [2]) [µg/mL] | MIC (Klebsiella pneumoniae [3]) [µg/mL] | MIC (Escherichia coli [4]) [µg/mL] | MIC (Pseudomonas aeruginosa [5]) [µg/mL] | MIC (Escherichia coli [6]) [µg/mL] | MIC (Klebsiella pneumoniae [7]) [µg/mL] | MIC (Escherichia coli [8]) [µg/mL] | MIC (Pseudomonas aeruginosa [9]) [µg/mL] | MIC (Escherichia coli [10]) [µg/mL] | MIC (Pseudomonas aeruginosa [11]) [µg/mL] | MIC (Escherichia coli [12]) [µg/mL] | MIC (Klebsiella pneumoniae [13]) [µg/mL] | MIC (Klebsiella pneumoniae [14]) [µg/mL] | MIC (Escherichia coli [15]) [µg/mL] | MIC (Escherichia coli [16]) [µg/mL] | MIC (Pseudomonas aeruginosa [17]) [µg/mL] | MIC (Klebsiella pneumoniae [18]) [µg/mL] | MIC (Klebsiella pneumoniae [19]) [µg/mL] | MIC (Escherichia coli [20]) [µg/mL] | other results
1 | CC(C)(O/N=C(\C(=O)N[C@@H]1C(=O)N2C(C(=O)[O-])=C(C[n+]3ccccc3)CS[C@H]12)c1csc(N)n1)C(=O)O [CEFTAZIDIME] | 256 (≈ 468 µM) | 32 (≈ 58.5 µM) | > 256 | 4 (≈ 7.32 µM) | > 256 | 8 (≈ 14.6 µM) | 64 (≈ 117 µM) | 4 (≈ 7.32 µM) | > 256 | > 256 | 1 (≈ 1.83 µM) | 0.19 (≈ 0.348 µM) | > 256 | > 256 | – | – | – | – | – | – | –
2 | C[C@H]1[C@H](NC(=O)/C(=N\OC(C)(C)C(=O)O)c2csc(N)n2)C(=O)N1S(=O)(=O)O [AZTREONAM] | 192 (≈ 441 µM) | – | – | 16 (≈ 36.7 µM) | – | 24 (≈ 55.1 µM) | – | 16 (≈ 36.7 µM) | – | – | – | – | – | – | – | – | – | – | – | – | –
3 | C[C@@H](O)[C@H]1C(=O)N2C(C(=O)O)=C(S[C@@H]3CN[C@H](C(=O)N(C)C)C3)[C@H](C)[C@H]12 [MEROPENEM] | 0.38 (≈ 0.991 µM) | 2 (≈ 5.22 µM) | > 32 | 0.38 (≈ 0.991 µM) | > 32 | 0.38 (≈ 0.991 µM) | 2 (≈ 5.22 µM) | 2 (≈ 5.22 µM) | > 32 | 3 (≈ 7.82 µM) | 0.05 (≈ 0.13 µM) | 0.01 (≈ 0.0261 µM) | 6 (≈ 15.6 µM) | 4 (≈ 10.4 µM) | 0.1 | 2 | > 32 | > 32 | 3 | 0.002 | MIC (Escherichia coli [21]): 0.38 µg/mL; MIC (Pseudomonas aeruginosa [22]): 3 µg/mL; MIC (Escherichia coli [23]): 0.25 µg/mL; MIC (Pseudomonas aeruginosa [24]): 0.01 µg/mL; MIC (Escherichia coli [25]): 0.01 µg/mL; MIC (Escherichia coli [26]): 0.12 µg/mL; MIC (Klebsiella pneumoniae [27]): 2 µg/mL; MIC (Klebsiella pneumoniae [28]): 1 µg/mL
4 | C[C@@H](O)[C@H]1C(=O)N2C(C(=O)O)=C(S[C@@H]3CN[C@H](C(=O)Nc4cccc(C(=O)O)c4)C3)[C@H](C)[C@H]12 | 0.25 (≈ 0.526 µM) | 2 (≈ 4.21 µM) | > 32 | 0.38 (≈ 0.799 µM) | > 32 | 0.25 (≈ 0.526 µM) | 24 (≈ 50.5 µM) | 0.5 (≈ 1.05 µM) | > 32 | 4 (≈ 8.41 µM) | 0.25 (≈ 0.526 µM) | 0.004 (≈ 0.00841 µM) | 12 (≈ 25.2 µM) | > 32 | 0.05 | 1.5 | > 32 | > 32 | 6 | 0.002 | MIC (Escherichia coli [21]): 0.19 µg/mL; MIC (Pseudomonas aeruginosa [22]): 2 µg/mL; MIC (Escherichia coli [23]): 0.05 µg/mL; MIC (Pseudomonas aeruginosa [24]): 0.03 µg/mL; MIC (Escherichia coli [25]): 0.01 µg/mL; MIC (Escherichia coli [26]): 0.02 µg/mL; MIC (Klebsiella pneumoniae [27]): 8 µg/mL; MIC (Klebsiella pneumoniae [28]): 2 µg/mL
5 | CCN1CCN(C(=O)N[C@@H](C(=O)N[C@@H]2C(=O)N3[C@@H]2SC(C)(C)[C@@H]3C(=O)O)c2ccccc2)C(=O)C1=O [PIPERACILLIN] | > 256 | > 256 | > 256 | 128 (≈ 247 µM) | > 256 | > 256 | > 256 | > 256 | > 256 | > 256 | 0.38 (≈ 0.734 µM) | 1.5 (≈ 2.9 µM) | > 256 | > 256 | – | – | – | – | – | – | –
6 | CC1(C)S[C@@H]2[C@H](NC(=O)[C@H](C(=O)O)c3ccsc3)C(=O)N2[C@H]1C(=O)O [TICARCILLIN] | > 256 | > 256 | > 256 | > 256 | > 256 | > 256 | > 256 | > 256 | > 256 | > 256 | 0.38 (≈ 0.988 µM) | 2 (≈ 5.2 µM) | > 256 | > 256 | > 256 | > 256 | > 256 | > 256 | > 256 | 1.5 | MIC (Escherichia coli [21]): > 256 µg/mL; MIC (Pseudomonas aeruginosa [22]): > 256 µg/mL; MIC (Escherichia coli [23]): > 256 µg/mL; MIC (Pseudomonas aeruginosa [24]): 0.25 µg/mL; MIC (Escherichia coli [25]): > 256 µg/mL; MIC (Escherichia coli [26]): > 256 µg/mL; MIC (Klebsiella pneumoniae [27]): > 256 µg/mL; MIC (Klebsiella pneumoniae [28]): > 256 µg/mL
